Experimental findings from patent US20070071778A1 (ISP INVESTMENTS INC., priority 2005, published 2007) are described below.

In the assay the test system is mixed fungal inoculum (Aspergillus niger, Penicillium funiculosum and Stachybotrys chartarum). The experiment in a line: Fungicidal efficacy on water saturated gypsum boards. Further details: key: Presence (+); Absence (−) of Fungal Growth. The assay is classed as cell-based. The settings on record: gypsum board, 1,000 ppm triclosan, 28° C., 80% RH, 30-45 days. The method, then:
The compositions of Example 9 were diluted to 1,000 ppm of triclosan. Then both sides of a gypsum board (cream and grey) sample (2×2×½ in.) were brush coated with each formulation and allowed to dry for 24 hours. The Controls were gypsum boards treated with only water or with only 1,000 ppm of triclosan in dimethyl sulfamide. The treated gypsum boards were then placed on a Petri dish and water was added to saturate the board. The water saturated gypsum boards were then inoculated with a mixed fungal inoculum (Aspergillus niger, Penicillium funiculosum and Stachybotrys chartarum) containing ca. 10^5 spores/ml. The samples were incubated at 28° C., 80% RH for 30-45 days and rated for the presence or absence of fungal growth thereon. Samples showing no growth were re-inoculated and incubated for another 30-45 days.

Take `Oc1cc(Cl)ccc1Oc1ccc(Cl)cc1Cl` [Triclosan, triclosan]: the “Presence (+)/Absence (−) of Fungal Growth, Cream Side” value is given as “+” and the “Presence (+)/Absence (−) of Fungal Growth, Grey Side” value is on record as “+”.
